Assay results published in patent US20260022142A1, “MACROCYCLIC IMMUNOMODULATORS” (Bristol-Myers Squibb Company, priority 2022, published 2026).
Bridge positions count the residues as written; N and C are the ends. Square brackets hold non-standard residues; d marks the D form. Peptide text beside a SMILES is read from it. * marks the point of attachment. ξ: configuration not given here. Phe(3-CF3) = N[C@@H](Cc1cccc(C(F)(F)F)c1)C(=O)O; Phe(4-COOH) = N[C@@H](Cc1ccc(C(=O)O)cc1)C(=O)O; Phe(3,5-F2) = N[C@@H](Cc1cc(F)cc(F)c1)C(=O)O; Bip = N[C@@H](Cc1ccc(-c2ccccc2)cc1)C(=O)O; Phe(3-Me) = Cc1cccc(C[C@H](N)C(=O)O)c1; NH(CH2)12COOH = O=C(O)CCCCCCCCCCCCN*; Val(3-OH) = CC(C)(O)[C@H](N)C(=O)O; Cha = N[C@@H](CC1CCCCC1)C(=O)O; Cit = NC(=O)NCCC[C@H](N)C(=O)O; NMeN = CN[C@@H](CC(N)=O)C(=O)O; Thr(3ξ) = CC(O)[C@H](N)C(=O)O; 12Ado = NCCCCCCCCCCCC(=O)O; dDab = NCC[C@@H](N)C(=O)O; hSer = N[C@@H](CCO)C(=O)O; Carboxymethyl = O=C(O)C*; Orn = NCCC[C@H](N)C(=O)O; Aun = NCCCCCCCCCCC(=O)O; Dab = NCC[C@H](N)C(=O)O; Nva = CCC[C@H](N)C(=O)O; Dap = NC[C@H](N)C(=O)O; AEEA = NCCOCCOCC(=O)O

molecular target: T1, PD-1/PD-L1 interaction (PE-labeled human PD-L1-Ig binding to Jurkat cell line over-expressing human PD-1) (Homo sapiens, UniProt Q15116); assay: Jurkat-PD-1 Cell Binding High-Content Screening Assay (CBA); type: cell-based; details: Jurkat cell line over-expressing human PD-1; PE-labeled PD-L1-Ig 20 nM final; read-out: Jurkat hPD1-PDL1 IC50
T1 construct: expressed in transfected cells; host or cells: Jurkat
T1 sequence (Q15116 25-288): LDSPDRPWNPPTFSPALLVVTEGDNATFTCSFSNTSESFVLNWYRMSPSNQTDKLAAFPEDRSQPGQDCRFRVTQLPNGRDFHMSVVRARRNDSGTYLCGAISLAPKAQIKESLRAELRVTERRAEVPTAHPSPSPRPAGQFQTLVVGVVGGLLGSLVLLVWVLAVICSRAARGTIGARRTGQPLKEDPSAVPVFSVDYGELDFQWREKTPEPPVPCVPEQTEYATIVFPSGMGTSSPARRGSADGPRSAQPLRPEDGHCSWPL
How it was run: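 Binding of fluorescent PD-L1-Ig (20 nM final) to Jurkat-PD-1 cells was measured by automated imaging after 1 h, following a 2 h compound pre-treatment at 37° C.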

Compound | IC50 [µM]
Cc1cccc(C[C@@H]2NC(=O)[C@H](CC(=O)O)NC(=O)[C@H](Cc3ccc(OCC(=O)O)cc3)NC(=O)[C@H](CN)NC(=O)CSC[C@@H](C(=O)NCCCCCCCCCCC(=O)O)NC(=O)[C@H](CCCN)NC(=O)[C@H](C(C)C)NC(=O)[C@H](CC3CCCCC3)NC(=O)[C@H](CCN)NC(=O)[C@@H](CC(C)C)NC(=O)[C@H](CCCN)NC(=O)[C@H](Cc3ccc(O)cc3)NC(=O)[C@H](Cc3ccc(-c4ccccc4)cc3)NC(=O)[C@H](Cc3ccc(O)cc3)NC2=O)c1 [Compound 2693] ({CH2CO}-[Dap]Y(Carboxymethyl)D[Phe(3-Me)]Y[Bip]Y[Orn][dL][Dab][Cha]V[Orn]C[Aun]-OH; thioether N-14) | 0.013
CC(C)C[C@@H]1NC(=O)[C@H](Cc2c[nH]c3ccccc23)NC(=O)[C@H](CC(=O)O)NC(=O)[C@H](Cc2ccc(OCC(=O)O)cc2)NC(=O)[C@H](CN)NC(=O)CSC[C@@H](C(=O)N[C@@H](CCN)C(=O)NCCCCCCCCCCC(=O)O)NC(=O)[C@H](CCCCN)NC(=O)[C@H](C(C)O)NC(=O)[C@H](CC2CCCCC2)NC(=O)[C@H](CCN)NC(=O)[C@@H](CC(C)C)NC(=O)[C@H](CCCN)NC(=O)[C@H](Cc2ccc(O)cc2)NC(=O)[C@H](Cc2ccc(-c3ccccc3)cc2)NC1=O (stereo partly drawn) [Compound 3693] ({CH2CO}-[Dap]Y(Carboxymethyl)DWL[Bip]Y[Orn][dL][Dab][Cha][Thr(3ξ)]KC[Dab][Aun]-OH; thioether N-14) | 0.0598
CC(C)C[C@H]1NC(=O)[C@H](CCCN)NC(=O)[C@H](Cc2ccc(OCC(=O)O)cc2)NC(=O)[C@H](Cc2ccc(-c3ccccc3)cc2)NC(=O)[C@H](Cc2ccc(OCC(=O)O)cc2)NC(=O)[C@H](Cc2cccc(C(F)(F)F)c2)NC(=O)[C@H](CC(=O)O)NC(=O)[C@H](Cc2ccc(OCC(=O)O)cc2)NC(=O)[C@H](CC2CCCCC2)NC(=O)CSC[C@@H](C(=O)N[C@H](CCN)C(=O)NCCOCCOCC(=O)NCCCCCCCCCCCCC(=O)O)NC(=O)[C@H](CC(=O)O)NC(=O)[C@H](C(C)C)NC(=O)[C@H](CC2CCCCC2)NC(=O)[C@H](CCN)NC1=O [Compound 3826] ({CH2CO}-[Cha]Y(Carboxymethyl)D[Phe(3-CF3)]Y(Carboxymethyl)[Bip]Y(Carboxymethyl)[Orn][dL][Dab][Cha]VDC[dDab][AEEA]-{NH(CH2)12COOH}; thioether N-14) | 0.0725
Cc1cccc(C[C@@H]2NC(=O)[C@H](CC(=O)O)NC(=O)[C@H](Cc3ccc(OCC(=O)O)cc3)NC(=O)[C@H](CCCNC(=N)N)NC(=O)CSC[C@@H](C(=O)N[C@H](CC(N)=O)C(=O)NCCCCCCCCCCC(=O)O)NC(=O)[C@H](C(C)O)NC(=O)[C@H](C(C)C)NC(=O)[C@H](CC3CCCCC3)NC(=O)[C@H](CCN)NC(=O)[C@@H](CC(C)C)NC(=O)[C@H](CCCNC(N)=O)NC(=O)[C@H](Cc3ccc(OCC(=O)O)cc3)NC(=O)[C@H](Cc3ccc(-c4ccccc4)cc3)NC(=O)[C@H](Cc3ccc(OCC(=O)O)cc3)NC2=O)c1 (stereo partly drawn) [Compound 3498] ({CH2CO}-RY(Carboxymethyl)D[Phe(3-Me)]Y(Carboxymethyl)[Bip]Y(Carboxymethyl)[Cit][dL][Dab][Cha]V[Thr(3ξ)]C[dN][Aun]-OH; thioether N-14) | 0.0472
Cc1cccc(C[C@@H]2NC(=O)[C@H](CC(=O)O)NC(=O)[C@H](Cc3ccc(OCC(=O)O)cc3)NC(=O)[C@H](CCCNC(=N)N)NC(=O)CSC[C@@H](C(=O)N(C)[C@@H](CC(N)=O)C(=O)NCCOCCOCC(=O)NCCCCCCCCCCC(=O)O)NC(=O)[C@H](CCCN)NC(=O)[C@H](C(C)C)NC(=O)[C@H](CC3CCCCC3)NC(=O)[C@H](CCN)NC(=O)[C@@H](CC(C)C)NC(=O)[C@H](CCN)NC(=O)[C@H](C(C)C)NC(=O)[C@H](Cc3ccc(-c4ccccc4)cc3)NC(=O)[C@H](C(C)C)NC2=O)c1 [Compound 3321] ({CH2CO}-RY(Carboxymethyl)D[Phe(3-Me)]V[Bip]V[Dab][dL][Dab][Cha]V[Orn]C[NMeN][AEEA][Aun]-OH; thioether N-14) | 0.051
CC(=O)NCCCC[C@@H]1NC(=O)[C@H](Cc2ccc(-c3ccccc3)cc2)NC(=O)[C@H](Cc2ccc(O)cc2)NC(=O)[C@H](Cc2cccc(C)c2)NC(=O)[C@H](CC(=O)O)NC(=O)[C@H](Cc2ccc(OCC(=O)O)cc2)NC(=O)[C@H](CN)NC(=O)CSC[C@@H](C(=O)N[C@@H](CCN)C(=O)N[C@@H](CO)C(=O)NCCCCCCCCCCCC(=O)O)NC(=O)[C@H](CCCN)NC(=O)[C@H](C(C)C)NC(=O)[C@H](CC2CCCCC2)NC(=O)[C@H](CCN)NC(=O)[C@@H](CC(C)C)NC(=O)[C@H](CCCN)NC1=O [Compound 3619] ({CH2CO}-[Dap]Y(Carboxymethyl)D[Phe(3-Me)]Y[Bip]K(Ac)[Orn][dL][Dab][Cha]V[Orn]C[Dab]S[12Ado]-OH; thioether N-14) | 0.0134
Cc1cccc(C[C@@H]2NC(=O)[C@H](CC(=O)O)NC(=O)[C@H](Cc3ccc(OCC(=O)O)cc3)NC(=O)[C@H](CN)NC(=O)CSC[C@@H](C(=O)N[C@@H](CCN)C(=O)NCCCCCCCCCCC(=O)O)NC(=O)[C@H](CCO)NC(=O)[C@H](C(C)C)NC(=O)[C@H](CC3CCCCC3)NC(=O)[C@H](CCN)NC(=O)[C@@H](CC(C)C)NC(=O)[C@H](CCCN)NC(=O)[C@H](Cc3ccc(OCC(=O)O)cc3)NC(=O)[C@H](Cc3ccc(-c4ccccc4)cc3)NC(=O)[C@H](C(C)C)NC2=O)c1 [Compound 2099] ({CH2CO}-[Dap]Y(Carboxymethyl)D[Phe(3-Me)]V[Bip]Y(Carboxymethyl)[Orn][dL][Dab][Cha]V[hSer]C[Dab][Aun]-OH; thioether N-14) | 0.018
Cc1cccc(C[C@@H]2NC(=O)[C@H](CC(=O)O)NC(=O)[C@H](Cc3ccc(OCC(=O)O)cc3)NC(=O)[C@H](CN)NC(=O)CSC[C@@H](C(=O)N[C@@H](CCN)C(=O)NCCOCCOCC(=O)NCCCCCCCCCCC(=O)O)NC(=O)[C@H](CCCNC(=N)N)NC(=O)[C@H](Cc3ccc(O)cc3)NC(=O)[C@H](CC3CCCCC3)NC(=O)[C@H](CCN)NC(=O)[C@@H](CC(C)C)NC(=O)[C@H](CCCN)NC(=O)[C@H](Cc3ccc(O)cc3)NC(=O)[C@H](Cc3ccc(-c4ccccc4)cc3)NC(=O)[C@H](Cc3ccc(O)cc3)NC2=O)c1 [Compound 2506] ({CH2CO}-[Dap]Y(Carboxymethyl)D[Phe(3-Me)]Y[Bip]Y[Orn][dL][Dab][Cha]YRC[Dab][AEEA][Aun]-OH; thioether N-14) | 0.0324

Compounds with a lower IC50, results first:

IC50 [µM] | Compound
0.0013 | CCC[C@@H]1NC(=O)CSC[C@@H](C(=O)N[C@@H](CCN)C(=O)NCCOCCOCC(=O)NCCCCCCCCCCC(=O)O)NC(=O)[C@H](CO)NC(=O)[C@H](C(C)(C)O)NC(=O)[C@H](CC2CCCCC2)NC(=O)[C@H](CCN)NC(=O)[C@@H](CC(C)C)NC(=O)[C@H](CCCN)NC(=O)[C@H](Cc2ccc(OCC(=O)O)cc2)NC(=O)[C@H](Cc2ccc(-c3ccccc3)cc2)NC(=O)[C@H](Cc2ccc(OCC(=O)O)cc2)NC(=O)[C@H](Cc2cccc(C)c2)NC(=O)[C@H](CC(=O)O)NC(=O)[C@H](Cc2ccc(C(=O)O)cc2)NC1=O [Compound 2247] ({CH2CO}-[Nva][Phe(4-COOH)]D[Phe(3-Me)]Y(Carboxymethyl)[Bip]Y(Carboxymethyl)[Orn][dL][Dab][Cha][Val(3-OH)]SC[Dab][AEEA][Aun]-OH; thioether N-14)
0.0083 | Cc1cccc(C[C@@H]2NC(=O)[C@H](CC(=O)O)NC(=O)[C@H](Cc3ccc(OCC(=O)O)cc3)NC(=O)[C@H](CCN)NC(=O)CSC[C@@H](C(=O)N[C@@H](CCN)C(=O)NCCOCCOCC(=O)NCCCCCCCCCCCCC(=O)O)NC(=O)[C@H](CO)NC(=O)[C@H](C(C)(C)O)NC(=O)[C@H](CC3CCCCC3)NC(=O)[C@H](Cc3c[nH]cn3)NC(=O)[C@@H](CC(C)C)NC(=O)[C@H](CCCN)NC(=O)[C@H](Cc3ccc(OCC(=O)O)cc3)NC(=O)[C@H](Cc3ccc(-c4ccccc4)cc3)NC(=O)[C@H](Cc3ccc(OCC(=O)O)cc3)NC2=O)c1 [Compound 2875] ({CH2CO}-[Dab]Y(Carboxymethyl)D[Phe(3-Me)]Y(Carboxymethyl)[Bip]Y(Carboxymethyl)[Orn][dL]H[Cha][Val(3-OH)]SC[Dab][AEEA]-{NH(CH2)12COOH}; thioether N-14)
0.0115 | Cc1cccc(C[C@@H]2NC(=O)[C@H](CC(=O)O)NC(=O)[C@H](Cc3ccc(OCC(=O)O)cc3)NC(=O)[C@H](CCCNC(=N)N)NC(=O)CSC[C@@H](C(=O)NCCOCCOCC(=O)N[C@@H](CCN)C(=O)NCCCCCCCCCCC(=O)O)NC(=O)[C@H](CN)NC(=O)[C@H](C(C)C)NC(=O)[C@H](CC3CCCCC3)NC(=O)[C@H](CCN)NC(=O)[C@@H](CC(C)C)NC(=O)[C@H](CCCN)NC(=O)[C@H](C(C)C)NC(=O)[C@H](Cc3ccc(-c4ccccc4)cc3)NC(=O)[C@H](C(C)C)NC2=O)c1 [Compound 3220] ({CH2CO}-RY(Carboxymethyl)D[Phe(3-Me)]V[Bip]V[Orn][dL][Dab][Cha]V[Dap]C[AEEA][Dab][Aun]-OH; thioether N-14)
0.0114 | Cc1cccc(C[C@@H]2NC(=O)[C@H](CC(=O)O)NC(=O)[C@H](Cc3ccc(OCC(=O)O)cc3)NC(=O)[C@H](CN)NC(=O)CSC[C@@H](C(=O)N[C@@H](CCN)C(=O)NCCOCCOCC(=O)NCCCCCCCCCCC(=O)O)NC(=O)[C@H](CCC(=O)O)NC(=O)[C@H](C(C)C)NC(=O)[C@H](Cc3cc(F)cc(F)c3)NC(=O)[C@H](CCN)NC(=O)[C@@H](CC(C)C)NC(=O)[C@H](CCCN)NC(=O)[C@H](Cc3ccc(OCC(=O)O)cc3)NC(=O)[C@H](Cc3ccc(-c4ccccc4)cc3)NC(=O)[C@H](Cc3ccc(C(=O)O)cc3)NC2=O)c1 [Compound 1269] ({CH2CO}-[Dap]Y(Carboxymethyl)D[Phe(3-Me)][Phe(4-COOH)][Bip]Y(Carboxymethyl)[Orn][dL][Dab][Phe(3,5-F2)]VEC[Dab][AEEA][Aun]-OH; thioether N-14)
